Holding throughout (assay): relative viability (nuclei count vs DMSO), 5 days (fraction); higher = more cells survive
Compound in the test “Decitabine + Lapatinib”: Nc1ncn([C@H]2C[C@H](O)[C@@H](CO)O2)c(=O)n1 [Decitabine] + CS(=O)(=O)CCNCc1ccc(-c2ccc3ncnc(Nc4ccc(OCc5cccc(F)c5)c(Cl)c4)c3c2)o1 [Lapatinib] (partner 2 µM)
Put shortly: (§1)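 Dosing by pin tool came one day after lung cancer cell lines were seeded in 1536-well plates, using either one drug or a fixed anchor-drug dose plus five library-drug doses (not always all listed) in √10 steps. After 5 days, nuclei were counted on 4× images. Relative viability is treated-well nuclei count divided by vehicle-well nuclei count, and values are medians of duplicate plates.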

Compound in the test “Halofuginone + OSI-027”: O=C(C[C@H]1NCCC[C@@H]1O)Cn1cnc2cc(Br)c(Cl)cc2c1=O (racemic) [Halofuginone] + COc1cccc2cc(-c3nc([C@H]4CC[C@H](C(=O)O)CC4)n4ncnc(N)c34)[nH]c12 [OSI-027] (partner 0.5 µM)
In short, it runs like this: as §1

Compound in the test “Cediranib + Palbociclib”: COc1cc2c(Oc3ccc4[nH]c(C)cc4c3F)ncnc2cc1OCCCN1CCCC1 [Cediranib] + CC(=O)c1c(C)c2cnc(Nc3ccc(N4CCNCC4)cn3)nc2n(C2CCCC2)c1=O [Palbociclib] (partner 0.5 µM)
Put shortly:
as §1

Compound in the test “Decitabine + Bortezomib”: Nc1ncn([C@H]2C[C@H](O)[C@@H](CO)O2)c(=O)n1 [Decitabine] + CC(C)C[C@H](NC(=O)[C@H](Cc1ccccc1)NC(=O)c1cnccn1)B(O)O [Bortezomib] (partner 0.002 µM)
In short, it runs like this:
as §1

For UMC-11, the relative viability with Decitabine + Lapatinib (first compound 0.04 µM) was 0.877; with Decitabine + Lapatinib (first compound 0.1265 µM), 0.832; with Decitabine + Lapatinib (first compound 0.4 µM), 0.434; with Decitabine + Lapatinib (first compound 1.265 µM), 0.357; in the test with Decitabine + Lapatinib (first compound 4 µM) it was 0.346; in the test with Halofuginone + OSI-027 (first compound 0.001 µM), 0.44. Moreover, the relative viability came out at 0.461 with Halofuginone + OSI-027 (first compound 0.003162 µM); 0.467 in the test with Halofuginone + OSI-027 (first compound 0.01 µM); 0.46 with Halofuginone + OSI-027 (first compound 0.03162 µM); 0.368 with Halofuginone + OSI-027 (first compound 0.1 µM); 0.345 with Cediranib + Palbociclib (first compound 0.04 µM); 0.341 in the test with Cediranib + Palbociclib (first compound 0.1265 µM). The relative viability was found to be 0.315 with Cediranib + Palbociclib (first compound 0.4 µM); 0.328 with Cediranib + Palbociclib (first compound 1.265 µM); 0.359 with Cediranib + Palbociclib (first compound 4 µM); 0.681 with Decitabine + Bortezomib (first compound 0.04 µM); 0.58 with Decitabine + Bortezomib (first compound 0.1265 µM); 0.31 with Decitabine + Bortezomib (first compound 0.4 µM). Moreover, the values for the relative viability with Decitabine + Bortezomib (first compound 1.265 µM) and with Decitabine + Bortezomib (first compound 4 µM) were 0.275 and 0.252, respectively.

For the origin of these results see the supplement of paper PMC10307832.
